{"source": "patent US6153587A", "about": "“Conformationally constrained LH-RH analogues, their uses and pharmaceutical compositions containing them” (Laboratoire THERAMEX, priority 1996, dated 2000)"}
{"biological_target": "T1, LH-RH receptors (Rattus norvegicus, UniProt P30969)", "T1 construct": "from tissue; host or cells: rat pituitary membrane fraction (female Sprague Dawley)", "T1 sequence (P30969 1-327)": "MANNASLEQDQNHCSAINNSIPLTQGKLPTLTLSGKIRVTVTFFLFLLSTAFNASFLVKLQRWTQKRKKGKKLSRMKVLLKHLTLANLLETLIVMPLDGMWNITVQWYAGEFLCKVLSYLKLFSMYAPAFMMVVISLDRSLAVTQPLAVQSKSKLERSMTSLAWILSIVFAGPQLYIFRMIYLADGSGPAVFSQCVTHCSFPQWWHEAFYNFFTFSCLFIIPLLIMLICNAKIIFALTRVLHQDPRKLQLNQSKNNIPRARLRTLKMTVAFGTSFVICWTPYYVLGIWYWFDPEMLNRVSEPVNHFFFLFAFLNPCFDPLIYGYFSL", "test": "Affinity for LH-RH receptors: [125I]-buserelin binding to rat pituitary membranes", "conditions": "2 hours at 4° C., 20 to 70 μM [125I]-buserelin, Ki from IC50 by Cheng-Prusoff, read-out: pKi (affinity for LH-RH receptors) (converted)", "description": "This affinity has been determined according to the following method:\nPituitaries from female Sprague Dawley rats were removed and homogenized with a Potter homogenizer in a 25 mM HEPES buffer (pH 7.4) containing 0.32 M sucrose, 100 μg/l PMSF (phenylmethylsulfonylfluoride), 5.6 U/l aprotinin and 10,000 U/l bacitracin. The homogenates were centrifuged at 700 g for 10 minutes and the supernatants were further centrifuged at 12,500 g for 30 minutes. The pellets were homogenized and centrifuged as described above, in the same buffer but without sucrose.\nAll homogenization, centrifugation and subsequent incubation steps were carried out at 4° C.\nThe assay was terminated by filtration under suction (Brandel 96-well harvester) through Whatman GF/B glass fiber filters. […] Each compound was tested in at least 4 experiments.\nSpecific binding data were analysed according to Scatchard's method.\nFor each test compound, the inhibitory constant (Ki) was calculated from its IC50 according to the Cheng and Prussofs equation: Ki=IC50 /(1+[radioligand]/Kd). Ki was then transformed into pKi (=-log Ki) for final expression of affinity scales.", "units": {"Ki": "nM"}}
{"smiles": "CC(=O)N[C@H](Cc1ccc2ccccc2c1)C(=O)N[C@H](Cc1ccc(Cl)cc1)C(=O)N[C@H](Cc1csc2ccccc12)C(=O)N[C@@H](CO)C(=O)N[C@@H](Cc1ccc(O)cc1)C(=O)N1CCC[C@@]12CCN([C@@H](CC(C)C)C(=O)N[C@@H](CCCNC(=N)N)C(=O)N1CCC[C@H]1C(=O)N[C@H](C)C(N)=O)C2=O", "note": "[Example 24, AcDNal-DpClPhe-DBal-Ser-Tyr-SPL-Leu-Arg-Pr-DAlaNH2]", "Ki": 0.251}
{"smiles": "CC(=O)N[C@H](Cc1ccc2ccccc2c1)C(=O)N[C@H](Cc1ccc(Cl)cc1)C(=O)N[C@H](Cc1cccnc1)C(=O)N[C@@H](CO)C(=O)N[C@@H](Cc1ccc(O)cc1)C(=O)N1CCC[C@@]12CCN([C@@H](CC(C)(C)C)C(=O)N[C@@H](CCCNC(=N)N)C(=O)N1CCC[C@H]1C(=O)N[C@H](C)C(N)=O)C2=O", "note": "[Example 25, AcDNal-DpClPhe-DPal-Ser-Tyr-SPL-Npg-Arg-Pro-DAlaNH2]", "Ki": 0.245}
{"smiles": "CCNC(=O)[C@@H]1CCCN1C(=O)[C@H](CCCNC(=N)N)NC(=O)[C@H](CC(C)C)N1CC[C@@]2(CCCN2C(=O)[C@H](Cc2ccc(O)cc2)NC(=O)[C@H](CO)NC(=O)[C@H](Cc2ccc3ccccc3c2)NC(=O)[C@H](Cc2c[nH]cn2)NC(=O)[C@@H]2CCC(=O)N2)C1=O", "note": "[Example 12, pGlu-His-Nal-Ser-Tyr-SPL-Leu-Arg-Pro-NEt]", "Ki": 0.105}
{"smiles": "CC(=O)N[C@H](Cc1ccc2ccccc2c1)C(=O)N[C@H](Cc1ccc(Cl)cc1)C(=O)N[C@H](Cc1cccnc1)C(=O)N[C@@H](CO)C(=O)N[C@@H](Cc1ccc(O)cc1)C(=O)N1CCC[C@@]12CCN([C@@H](CC(C)C)C(=O)N[C@@H](CCCNC(=N)N)C(=O)N1CCC[C@H]1C(=O)N[C@H](C)C(N)=O)C2=O", "note": "[Example 23, AcDNal-DpClPhe-DPal-Ser-Tyr-SPL-Leu-Arg-Pro-DAlaNH2]", "Ki": 0.155}
{"smiles": "CCNC(=O)[C@@H]1CCCN1C(=O)[C@H](CCCNC(=N)N)NC(=O)[C@H](CC(C)C)N1CC[C@@]2(CCCN2C(=O)[C@H](Cc2ccc(O)cc2)NC(=O)[C@H](CO)NC(=O)[C@H](Cc2cccc3ccccc23)NC(=O)[C@H](Cc2c[nH]cn2)NC(=O)[C@@H]2CCC(=O)N2)C1=O", "note": "[Example 11, pGlu-His-INal-Ser-Tyr-SPL-Leu-Arg-Pro-NEt]", "Ki": 0.427}
{"smiles": "CC(=O)N[C@H](Cc1ccc2ccccc2c1)C(=O)N[C@H](Cc1ccc(Cl)cc1)C(=O)N[C@H](Cc1cccnc1)C(=O)N[C@@H](CO)C(=O)N[C@@H](CCCCNC(=O)c1cccnc1)C(=O)N1CCC[C@@]12CCN([C@@H](CC(C)(C)C)C(=O)N[C@@H](CCCCNC(C)C)C(=O)N1CCC[C@H]1C(=O)N[C@H](C)C(N)=O)C2=O", "note": "[Example 29, AcDNal-DpClPhe-DPal-Ser-NicLys-SPL-Npg-IprLys-Pro-DAlaNH2]", "Ki": 0.363}
{"smiles": "CC(C)C[C@@H](C(=O)N[C@@H](CCCNC(=N)N)C(=O)N1CCC[C@H]1C(=O)N[C@H](C)C(N)=O)N1CC[C@@]2(CCCN2C(=O)[C@H](Cc2ccc(O)cc2)NC(=O)[C@H](CO)NC(=O)[C@H](Cc2c[nH]c3ccccc23)NC(=O)[C@@H](Cc2ccccc2)NC(=O)[C@@H]2CCC(=O)N2)C1=O", "note": "[Example 21, pGlu-DPhe-Trp-Ser-Tyr-SPL-Leu-Arg-Pro-DAlaNH2]", "Ki": 9.77}
{"smiles": "CCNC(=O)[C@@H]1CCCN1C(=O)[C@H](CCCNC(=N)N)NC(=O)[C@H](CC(C)C)N1CC[C@@]2(CCCN2C(=O)[C@H](Cc2ccc(O)cc2)NC(=O)[C@H](CO)NC(=O)[C@H](Cc2c[nH]c3ccccc23)NC(=O)[C@H](Cc2c[nH]cn2)NC(=O)[C@@H]2CCC(=O)N2)C1=O", "note": "[Example 9, pGlu-His-Trp-Ser-Tyr-SPL-Leu-Arg-Pro-NEt]", "Ki": 1.15}
{"smiles": "CCNC(=O)[C@@H]1CCCN1C(=O)[C@H](CCCNC(=N)N)NC(=O)[C@@H](N1CC[C@@]2(CCCN2C(=O)[C@H](Cc2ccc(O)cc2)NC(=O)[C@H](CO)NC(=O)[C@H](Cc2c[nH]c3ccccc23)NC(=O)[C@H](Cc2c[nH]cn2)NC(=O)[C@@H]2CCC(=O)N2)C1=O)C(C)(C)C", "note": "[Example 17, pGlu-His-Trp-Ser-Tyr-SPL-Tle-Arg-Pro-NEt]", "Ki": 1.78}
{"smiles": "CCNC(=O)[C@@H]1CCCN1C(=O)[C@H](CCCNC(=N)N)NC(=O)[C@H](CC(C)(C)C)N1CC[C@@]2(CCCN2C(=O)[C@H](Cc2ccc(O)cc2)NC(=O)[C@H](CO)NC(=O)[C@H](Cc2c[nH]c3ccccc23)NC(=O)[C@H](Cc2c[nH]cn2)NC(=O)[C@@H]2CCC(=O)N2)C1=O", "note": "[Example 16, pGlu-His-Trp-Ser-Tyr-SPL-Npg-Arg-Pro-NEt]", "Ki": 0.55}
{"smiles": "CCNC(=O)[C@@H]1CCCN1C(=O)[C@H](CCCNC(=N)N)NC(=O)[C@H](CC(C)C)N1CC[C@@]2(CCCN2C(=O)[C@H](Cc2ccc(O)cc2)NC(=O)[C@H](CO)NC(=O)[C@H](Cc2ccc3ccccc3c2)NC(=O)[C@H](Cc2c[nH]cn2)NC(=O)CN(C)C(C)=O)C1=O", "note": "[Example 13, AcSar-His-Nal-Ser-Tyr-SPL-Leu-Arg-Pro-NEt]", "Ki": 1.05}
{"smiles": "CCCC[C@@H](C(=O)N[C@@H](CCCNC(=N)N)C(=O)N1CCC[C@H]1C(=O)NCC)N1CC[C@@]2(CCCN2C(=O)[C@H](Cc2ccc(O)cc2)NC(=O)[C@H](CO)NC(=O)[C@H](Cc2c[nH]c3ccccc23)NC(=O)[C@H](Cc2c[nH]cn2)NC(=O)[C@@H]2CCC(=O)N2)C1=O", "note": "[Example 18, pGlu-His-Trp-Ser-Tyr-SPL-Nle-Arg-Pro-NEt]", "Ki": 2.04}
{"smiles": "CC(C)C[C@@H](C(=O)N[C@@H](CCCNC(=N)N)C(=O)N1CCC[C@H]1C(=O)NCC(N)=O)N1CC[C@@]2(CCCN2C(=O)[C@H](Cc2ccc(O)cc2)NC(=O)[C@H](CO)NC(=O)[C@H](Cc2c[nH]c3ccccc23)NC(=O)[C@@H](Cc2ccccc2)NC(=O)[C@@H]2CCC(=O)N2)C1=O", "note": "[Example 20, pGlu-DPhe-Trp-Ser-Tyr-SPL-Leu-Arg-Pro-Gly-NH2]", "Ki": 4.07}
{"smiles": "CCNC(=O)[C@@H]1CCCN1C(=O)[C@H](CCCNC(=N)N)NC(=O)[C@H](CC(C)C)N1CC[C@@]2(CCCN2C(=O)[C@H](Cc2ccc(O)cc2)NC(=O)[C@H](CO)NC(=O)[C@H](Cc2c[nH]c3ccccc23)NC(=O)[C@H](Cc2c[nH]cn2)NC(=O)CN(C)C(C)=O)C1=O", "note": "[Example 10, AcSar-His-Trp-Ser-Tyr-SPL-Leu-Arg-Pro-NEt]", "Ki": 6.17}
{"smiles": "CC(=O)N[C@H](Cc1ccc2ccccc2c1)C(=O)N[C@H](Cc1ccc(Cl)cc1)C(=O)N[C@H](Cc1c[nH]c2ccccc12)C(=O)N[C@@H](CO)C(=O)N[C@@H](Cc1ccc(O)cc1)C(=O)N1CCC[C@@]12CCN([C@@H](CC(C)C)C(=O)N[C@@H](CCCNC(=N)N)C(=O)N1CCC[C@H]1C(=O)N[C@H](C)C(N)=O)C2=O", "note": "[Example 22, AcDNal-DpClPhe-DTrp-Ser-Tyr-SPL-Leu-Arg-Prx)-DAlaNH2]", "Ki": 0.891}
{"smiles": "CC(=O)N[C@H](Cc1ccc2ccccc2c1)C(=O)N[C@H](Cc1ccc(Cl)cc1)C(=O)N[C@H](Cc1cccnc1)C(=O)N[C@@H](CO)C(=O)N[C@@H](CCCCNC(C)C)C(=O)N1CCC[C@@]12CCN([C@@H](CC(C)(C)C)C(=O)N[C@@H](CCCNC(=N)N)C(=O)N1CCC[C@H]1C(=O)N[C@H](C)C(N)=O)C2=O", "note": "[Example 27, AcDNal-DpCtPhe-DPal-Ser-IprLys-SPL-Npg-Arg-Pro-DAlaNH2]", "Ki": 0.0977}
{"smiles": "CC(=O)N[C@H](Cc1ccc2ccccc2c1)C(=O)N[C@H](Cc1ccc(Cl)cc1)C(=O)N[C@H](Cc1cccnc1)C(=O)N[C@@H](CO)C(=O)N[C@@H](CCCCNC(=O)c1cccnc1)C(=O)N1CCC[C@@]12CCN([C@@H](CC(C)(C)C)C(=O)N[C@@H](CCCNC(=N)N)C(=O)N1CCC[C@H]1C(=O)N[C@H](C)C(N)=O)C2=O", "note": "[Example 26, AcDNal-DpClPhe-DPal-Ser-NicLys-SPL-Npg-Arg-Pro-DAlaNH2]", "Ki": 0.263}
